Measurements from patent US4720497A, “6-purinyl N-/2-chloroethyl/carbamate and thiocarbamate and process for the preparation thereof” (SPOFA, Spojene Podniky pro Zdravotnickou Vyrobu, priority 1984, dated 1988).
“Also recorded” adds a separate entry of the source. Read-outs that look alike come from different tables or passages of the source.

Tests used:
Ehrlich Carcinoma cells = assay: Cytotoxicity in vitro: 14C precursor incorporation in Ehrlich Carcinoma cells (Example 10); type: cell-based; details: for IC50: Ehrlich, read-out: ID50 (14C incorporation)
Source text: (§1) The antineoplastic activity of the compounds of the invention has been investigated by testing the compounds of the chemical group "in vivo" against experimental rodent tumors such as Crocker's sarcoma (S180), solid-type Ehrlich carcinoma (STE), kreb's ascites tumor (Kr2), all maintained in mice H, Gardner lymphosarcoma (LsG, C3H mice), P388 and L1210 leukemias (DBA2 mice), Zajdela ascites hapatoma (ZAH, Wistar rats), Yoshida ascites reticulosarcoma (Y, Wistar rats) and B16 melanoma (C57B16 mice) in experiments according to Jelinek, V. (Neoplasma 12, 469 (1969); ibid. 7, 146 (1960) and "in vitro" experiments using radioactive precursors of nucleic acids and proteins according to Miko, M. et al. (Cancer Res. 39, 4242 (1979); Neoplasma 26, 449 (1979); ibid. 16, 161--1969) with minor modifications (Mattern J.: Studies on the Drug Sensitivity of Short Term Cultured Tumor Cell Suspensions. In "Human Tumors in Short Term Culture" (Dendy, P. P. ed.), p. 301, Academic Press 1976). Therapeutic synergism has been studied by the method of Carter, W. H. et al. (cf. Cancer Res. 42, 2963--1982).
The degree of influence on the incorporation of ^14 C from adenine-^14 C and valine-^14 C to the fraction of Ehrlich Carcinoma cells insoluble in trichloroacetic acid serves as the measure of cytotoxicity. The value ID50 is the concentration of a cytostatic that reduces the ^14 C incorporation down to 50% of the non-influencedcontrol cells.

Yoshida tumor [1] = assay: Survival of rats with implanted Yoshida tumor (Example 6); type: in vivo, female Wistar rats; details: Wistar rats
Source text: as §1
(§2) Additionally, the compounds of the present invention are useful in increasing survival time of the suitable biological subjects, namely mice and rats bearing tumors STE, ZAH and/or Y: because of the lethal nature of the test system employed, the antitumor effect of the compounds is illustrated by a side comparison of the survival time of treated animals (survival for a longer time) with the untreated control groups of animals (cf. Examples 5, 6, and 7). In these typical experiments, ten animals are in the experimental groups, and the treated groups of animals survive for a longer time than the untreated controls.
(§3) Fifty infantile female Wistar rats weighing approximately 60 g are divided into five groups: one control and four experimental ones, 10 animals each. A lethal dose of the tumor ascites from Zajdel ascitic hepatoma is implanted intraperitoneally in all the animals. The experimental groups are treated with the substance Ia in water suspension. The suspension contains the substance Ia in such an amount that a dose of 0.4 or 0.2 ml of the suspension p.o. is equal to a dose of 200 or 100 mg Ia/Kg. This dose is applied to the experimental animals once a day, five times altogether, starting on the first day after the implantation.

Yoshida tumor [2] = assay: Survival of rats with implanted Yoshida tumor (Example 7); type: in vivo, female Wistar rats; details: Wistar rats
Source text: as §1, §2, §3

[3] = test system: Yoshida ascitic tumor cells; assay: Cytotoxicity in vitro: initial velocity of 3H/14C precursor incorporation in Yoshida ascitic tumor cells (Example 11); type: cell-based; details: for IC50: Rattus norvegicus, YOSHIDA
Source text: as §1
(§4) In analogous experiments, the degree of influence on the initial velocity of the incorporation of ^3 H from 5-iodo-2'-deoxy-(6-^3 H)uridine or that of ^14 C from a mixture of L-(U-^14 C)-aminoacids to the fraction of Yoshida ascitic tumor cells insoluble in trichloroacetic acid serves as the measure of cytotoxicity. The value IC50 is the concentration of a substance that reduces the initial velocity of the ^3 H or ^14 C incorporation down to 50% of the noninfluenced control cells.

Zajdel ascitic hepatoma [4] = assay: Survival of rats with implanted Zajdel ascitic hepatoma, comparison with 6-mercaptopurine (Example 8); type: in vivo, female Wistar rats; details: for Period of survival (% of control): Wistar rats; for antitumor effect / average period of survival vs non-treated control: in words (Example 8)
Source text: as §1, §3

Yoshida ascitic sarcoma = assay: Therapeutic synergism with Benfluron, survival of rats with Yoshida ascitic sarcoma (Example 9); type: in vivo, female Wistar rats; details: for Average period of survival (days): geometric average (fiducial limits P=0.95)
Source text: as §1
One hundred and twenty seven infantile female Wistar rats weighing 50-60 g are divided into sixteen groups: one control group of 25 animals and fifteen experimental groups of 6 to 7 animals. A lethal dose of the tumor ascites from Yoshida ascitic sarcoma is implanted intraperitoneally in all the animals. The experimental groups are treated with the substance Ia in water suspension, water solution of a cytostatic Benfluron (CAS 80427-58-3), or a combination of both the substances. The suspension or solution contains the substances in such a concentration that doses of 0.4 or 0.2 and 0.1 ml of the suspension/solution p.o. are equal to doses of 200 or 100 and 50 mg Ia/kg or to doses of 160, 80 or 40 mg of Benfluron/kg. Doses of the substance Ia are administered to the experimental animals once a day, four times altogether, starting on the first day after the tumor implantation. Benfluron is administered only once, on the fourth day after the tumor implantation, 7 hours after the last dose of the substance Ia.

[5] = literature; cited from earlier work
tumor cells = assay: Comparison of cytotoxicity of Ia and Ib in vitro, precursor incorporation (Example 12); type: cell-based
Source text: as §1, §4
In analogous experiments, the following values of IC50 were determined: […]

Zajdel ascitic hepatoma [6] = assay: Survival of rats with implanted Zajdel ascitic hepatoma (Example 5); type: in vivo, female Wistar rats; details: Wistar rats
Source text: as §1, with “2963--1982). […]” for “2963--1982).”

Crocker tumor (S180) = assay: Antitumor activity against Crocker tumor (S180) in mice, tumor weight (Example 3); type: in vivo, female mice H; details: S180, mice H, p.o. 200 or 100 mg/kg once a day, eight times; day 14
Source text: as §1
Sixty female mice H weighing approximately 20 g are divided into three groups: one control group and two experimental groups of 20 animals each. A lethal dose of the Crocker tumor (S180) homogenate is implanted subcutaneously in all the animals. […]

[7] = Toxicity and tolerability by oral route; type: in vivo, small rodents; rat; mouse; man
Source text: The compounds described herein can be administered to suitable biological subjects, particularly mammals, for their therapeutic antitumor effects, by conventional modes of administration alone, but preferably as active ingredients with any conventional suitable non-toxic pharmaceutical carrier, dissolved or suspended, for example, in water, saline, polyethylene or polypropylene alcohols, etc. The administration is preferably by the oral route. […]. The dosage administered will be dependent upon the type of tumor for which treatment is desired, the type of biological subject involved, weight, body surface, localization of the tumor, its morphological type, the frequency of treatment, individual tolerance and responsiveness of each subject, etc; for example, by oral route, the prolonged administration of 100, 200 mg/kg daily appears to be well tolerated both in the rat and in the mouse. The assessment drawn from the biological tests is that doses of 20 mg/kg (e.g. about 740 mg/m^2) may be regarded as well tolerated in man.

Ehrlich tumor (STE) = assay: Antitumor activity against implanted Ehrlich tumor (STE) in mice, tumor weight (Example 4); type: in vivo, female mice H; details: mice H
Source text: as §1
Sixty female mice H weighing approximately 20 g are divided into three groups: one control group and two experimental groups of 20 animals each. A lethal dose of the Crocker tumor (S180) homogenate is implanted subcutaneously in all the animals. The experimental groups are treated with the substance Ia in water suspension. The suspension contains the substance Ia in such an amount that a dose 0.4 or 0.2 ml of the suspension p.o. is equal to a dose 200 or 100 mg Ia/kg. This dose is administered to the experimental animals once a day, eight times altogether, starting on the fifth day after the implantation. On the fourteenth day after the implantation, a half of the animals in each group is sacrificed in ether anaesthesia, and tumors are removed and weighed. The remaining animals are left to monitor the time of death.

[8] = precursor 5-iodo-2'-deoxy(6-3H)uridine, read-out: IC50 (initial velocity of 3H incorporation)
[9] = precursor L-(U-14C)aminoacids, read-out: IC50 (initial velocity of 14C incorporation)
[10] = precursor 5-iodo-2'-deoxy(6-3H)uridine (Example 12)
[11] = precursor L-(U-14C)aminoacids (Example 12)

## Nc1nc(S)c2[nH]cnc2n1 [2-amino-6-mercaptopurine, 2-Amino-6-mercaptopurine, reference compound]
Ehrlich Carcinoma cells; precursor adenine-14C
  IC50: > 600 µM
Ehrlich Carcinoma cells; precursor valine-14C
  IC50: > 600 µM

## Sc1ncnc2nc[nH]c12 [6-mercaptopurine, reference compound]
Yoshida tumor [1]; p.o. 5 × 20 mg/kg (Example 6)
  Period of survival (% of control): 109 % of control
Yoshida tumor [1]; p.o. 5 × 40 mg/kg (Example 6)
  Period of survival (% of control): 127 % of control
Yoshida tumor [2]; p.o. 5 × 20 mg/kg (Example 7)
  Period of survival (% of control): 107 % of control
Yoshida tumor [2]; p.o. 5 × 40 mg/kg (Example 7)
  Period of survival (% of control): 156 % of control
[3]; [8]
  IC50: > 10000 µM
[3]; [9]
  IC50: > 229 µM
Zajdel ascitic hepatoma [4]; p.o. 5 × 20 mg/kg (Example 8)
  Period of survival (% of control): 101 % of control
Zajdel ascitic hepatoma [4]; p.o. 5 × 40 mg/kg (Example 8)
  Period of survival (% of control): 105 % of control
Zajdel ascitic hepatoma [4]
  antitumor effect / average period of survival vs non-treated control: ineffective; also recorded: inactive

## CN(C)CCOc1cc2c(c3ccccc13)-c1ccccc1C2=O.Cl [Benfluron, 5-[2-(N, N-Dimethylamino)ethoxy]-7-oxo-7H-benzo(c)fluorene hydrochloride, reference compound]
Yoshida ascitic sarcoma; Benfluron 40 mg/kg p.o. once
  Average period of survival (% of control): 104 % of control
  Average period of survival (days): 7.67 (6.9; 8.6) days
Yoshida ascitic sarcoma; Benfluron 80 mg/kg p.o. once
  Average period of survival (% of control): 104 % of control
  Average period of survival (days): 7.61 (6.5; 8.9) days
Yoshida ascitic sarcoma; Benfluron 160 mg/kg p.o. once
  Average period of survival (% of control): 106 % of control
  Average period of survival (days): 7.79 (6.9; 8.8) days

## Nc1ncnc2c1ncn2C(=O)NCCCl [N-(2-chloroethyl)-6-aminopurine-9-carboxamide]
[5]
  biological activity: did not exhibit any biological activity

## CCN(CC)C(=O)Nc1ncnc2nc[nH]c12 [N-(6-purinyl)-N', N'-diethylurea]
[5]
  antineoplastic action: weak antineoplastic action

## O=C(NCCCl)Sc1ncnc2nc[nH]c12 [Substance Ia, 6-[N-(2-Chloroethyl)carbamoyl]thiopurine]
Ehrlich Carcinoma cells; Ehrlich ascites carcinoma cells, in words
  effectiveness vs thioguanine and/or 6-mercaptopurine: more effective
Ehrlich Carcinoma cells; precursor adenine-14C
  IC50: 94 µM
Ehrlich Carcinoma cells; precursor valine-14C
  IC50: 155 µM
Yoshida tumor [1]; p.o. 5 × 100 mg/kg (Example 6)
  Period of survival (% of control): 134 % of control
Yoshida tumor [1]; p.o. 5 × 200 mg/kg (Example 6)
  Period of survival (% of control): 127 % of control
Yoshida tumor [2]; p.o. 5 × 100 mg/kg (Example 7)
  Period of survival (% of control): 124 % of control
Yoshida tumor [2]; p.o. 5 × 200 mg/kg (Example 7)
  Period of survival (% of control): 158 % of control
Tumor cells; [10]
  IC50: 39 µM
Tumor cells; [11]
  IC50: 62 µM
Zajdel ascitic hepatoma [6]; p.o. 5 × 100 mg/kg
  Period of survival (% of control): 117 % of control
Zajdel ascitic hepatoma [6]; p.o. 5 × 200 mg/kg
  Period of survival (% of control): 126 % of control
Crocker tumor (S180)
  average values of the tumor weight vs non-treated control: Statistically significantly lower average values of the tumor weight
[3]; [8]
  IC50: 25 µM
[3]; [9]
  IC50: 26 µM
[3]; Yoshida ascites tumor cells, in words
  effectiveness vs thioguanine and/or 6-mercaptopurine: more effective
[7]; in vivo, small rodents, oral route
  LD50: ≥ 3000 mg/kg
[7]; in words
  toxicity: practically non-toxic
Yoshida ascitic sarcoma; Ia 4 × 50 mg/kg p.o.
  Average period of survival (% of control): 125 % of control
  Average period of survival (days): 9.20 (7.6; 11.1) days
Yoshida ascitic sarcoma; Ia 4 × 100 mg/kg p.o.
  Average period of survival (% of control): 149 % of control
  Average period of survival (days): 10.94 (9.0; 13.3) days
Yoshida ascitic sarcoma; Ia 4 × 200 mg/kg p.o.
  Average period of survival (% of control): 121 % of control
  Average period of survival (days): 8.86 (7.4; 10.7) days
Yoshida ascitic sarcoma; Yoshida ascitic sarcoma, in words, over 29 days
  survival vs control group: survive longer
Ehrlich tumor (STE); p.o. 8 × 100 mg/kg
  Tumor weight (% of control): 80 % of control
Ehrlich tumor (STE); p.o. 8 × 200 mg/kg
  Tumor weight (% of control): 70 % of control
Zajdel ascitic hepatoma [4]; p.o. 5 × 100 mg/kg (Example 8)
  Period of survival (% of control): 120 % of control
Zajdel ascitic hepatoma [4]; p.o. 5 × 200 mg/kg (Example 8)
  Period of survival (% of control): 128 % of control
Zajdel ascitic hepatoma [4]
  antitumor effect / average period of survival vs non-treated control: statistically significantly higher average period of survival

## O=C(NCCCl)Oc1ncnc2nc[nH]c12 [Substance Ib, 6-[N-(2-Chloroethyl)carbamoyl]oxypurine]
Yoshida tumor [1]; p.o. 5 × 100 mg/kg (Example 6)
  Period of survival (% of control): 100 % of control
Yoshida tumor [1]; p.o. 5 × 200 mg/kg (Example 6)
  Period of survival (% of control): 83 % of control
Tumor cells; [10]
  IC50: 55 µM
Tumor cells; [11]
  IC50: 80 µM
Ehrlich tumor (STE); p.o. 8 × 100 mg/kg
  Tumor weight (% of control): 76 % of control
Ehrlich tumor (STE); p.o. 8 × 200 mg/kg
  Tumor weight (% of control): 81 % of control
